Where a name gives a salt, the structure may show the parent alone.
Target: T1, human SSAO (Homo sapiens, UniProt Q16853)
T1 construct: made in house
T1 sequence (Q16853 29-763 limits assumed): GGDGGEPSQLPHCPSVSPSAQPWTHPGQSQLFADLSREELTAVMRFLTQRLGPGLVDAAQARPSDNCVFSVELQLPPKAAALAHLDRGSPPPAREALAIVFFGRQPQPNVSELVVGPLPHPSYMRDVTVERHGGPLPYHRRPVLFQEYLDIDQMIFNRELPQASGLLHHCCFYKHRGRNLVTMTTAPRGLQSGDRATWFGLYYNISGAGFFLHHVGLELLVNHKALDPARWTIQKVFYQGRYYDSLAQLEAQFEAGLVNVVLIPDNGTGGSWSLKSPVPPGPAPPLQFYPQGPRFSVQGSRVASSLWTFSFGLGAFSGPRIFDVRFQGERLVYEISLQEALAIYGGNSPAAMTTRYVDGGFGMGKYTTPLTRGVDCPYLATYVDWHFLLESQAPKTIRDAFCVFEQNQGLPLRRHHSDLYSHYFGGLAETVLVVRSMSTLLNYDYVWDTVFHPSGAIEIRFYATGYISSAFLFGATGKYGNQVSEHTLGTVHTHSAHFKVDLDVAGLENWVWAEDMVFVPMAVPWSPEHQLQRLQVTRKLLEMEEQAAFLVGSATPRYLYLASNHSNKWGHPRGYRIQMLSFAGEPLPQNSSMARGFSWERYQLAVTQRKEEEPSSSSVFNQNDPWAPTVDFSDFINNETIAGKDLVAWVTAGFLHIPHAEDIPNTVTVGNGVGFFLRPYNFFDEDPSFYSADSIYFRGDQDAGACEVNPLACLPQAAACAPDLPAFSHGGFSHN
Assay: SSAO enzyme inhibition assay (benzylamine substrate; HRP-coupled hydrogen peroxide detection or 14C-benzaldehyde detection)
Assay type: biochemical
Conditions: purified recombinantly expressed human SSAO, benzylamine as substrate, r.t.; read-out: SSAO inhibitory activity IC50
Protocol: All primary assays were performed at r.t. with purified recombinantly expressed human SSAO. Enzyme was prepared essentially as described in Öhman et al. (Protein Expression and Purification 46 (2006) 321-331). In addition, secondary- and selectivity assays were performed using SSAO prepared from various tissues or purified rat recombinant SSAO. The enzyme activity was assayed with benzylamine as substrate by measuring either benzaldehyde production, using ^14C-labeled substrate, or by utilizing the production of hydrogen peroxide in a horseradish peroxidise (HRP) coupled reaction. Briefly, test compounds were dissolved in dimethyl sulfoxide (DMSO) to a concentration of 10 mM. Dose-response measurements were assayed by either creating 1:10 serial dilutions in DMSO to produce a 7 point curve or by making 1:3 serial dilutions in DMSO to produce 11 point curves. The top concentrations were adjusted depending on the potency of the compounds and subsequent dilution in reaction buffer yielded a final DMSO concentration ≦2%.
In a horseradish peroxidise (HRP) coupled reaction, hydrogen peroxide oxidation of 10-acetyl-3,7-dihydroxyphenoxazine produced resorufin, which is a highly fluorescent compound (Zhout and Panchuk-Voloshina. Analytical Biochemistry 253 (1997) 169-174; Amplex® Red Hydrogen Peroxide/peroxidise Assay kit, Invitrogen A22188). Enzyme and compounds in 50 mM sodium phosphate, pH 7.4 were set to pre-incubate in flat-bottomed microtiter plates for approximately 15 minutes before initiating the reaction by addition of a mixture of HRP, benzylamine and Amplex reagent. Benzylamine concentration was fixed at a concentration corresponding to the Michaelis constant, determined using standard procedures. Fluorescence intensity was then measured at several time points during 1-2 hours, exciting at 544 nm n and reading the emission at 590 nm. For the human SSAO assay final concentrations of the reagents in the assay wells were: SSAO enzyme 1 μg/ml, benzylamine 100 μM, Amplex reagent 20 μM, HRP 0.1 U/mL and varying concentrations of test compound. The inhibition was measured as % decrease of the signal compared to a control without inhibitor (only diluted DMSO). The background signal from a sample containing no SSAO enzyme was subtracted from all data points. Data was fitted to a four parameter logistic model and IC50 values were calculated using the GraphPad Prism 4 or XLfit 4 programs.
SSAO activity was assayed using 14C-labeled benzylamine and analysed by measuring radioactive benzaldehyde. In a white 96-well optiplate (Packard), 20 μL of diluted test compound was pre-incubated at r.t. with 20 μL SSAO enzyme for approximately 15 minutes with continuous agitation. All dilutions were made with PBS. The reaction was initiated by adding 20 μL of the benzylamine substrate solution containing [7-14C] Benzylamine hydrochloride (CFA589, GE Healthcare). The plate was incubated for 1 hour as above after which the reaction was stopped by acidification (10 μL 1 M HCl). Then 90 μL Micro Scint-E solution (Perkin-Elmer) was added to each well and the plate was continuously mixed for 15 minutes. Phase separation occurred instantly and activity was read in a Topcount scintillation counter (Perkin-Elmer). In the final reaction well, human recombinant SSAO concentration was 10 μg/ml. In order to optimize sensitivity, the substrate concentration was decreased as compared to the HRP coupled assay in order to get a higher fraction of radioactive product. In the human SSAO assay, benzylamine concentration was 40 μM (0.2 μCi/mL). Data was analysed as above.

SMILES	IC50
NC1CCC(c2cn(-c3ccc(Cl)cc3)c3cnccc23)CC1 (mixture of isomers) [Compound 12, 4-[1-(4-Chlorophenyl)-1H-pyrrolo[2,3-c]pyridin-3-yl]cyclohexan-1-amine hydrochloride]	< 100 nM
Cc1cc(Cl)ccc1-n1cc(C2CCC(N)CC2)c2ccncc21 (mixture of isomers) [Compound 13, 4-[1-(4-Chloro-2-methylphenyl)-1H-pyrrolo[2,3-c]pyridin-3-yl]cyclohexan-1-amine hydrochloride]	100 to 500 nM
Clc1ccc(-c2cn(CC3CCOC3)c3ccncc23)cc1 (centres unmarked) [Compound 1, 3-(4-Chlorophenyl)-1-(oxolan-3-ylmethyl)-1H-pyrrolo[3,2-c]pyridine]	500 to 2500 nM
CC(C)(C)OC(=O)N1CCC(n2cc(-c3ccc(Cl)cc3)c3cnccc32)CC1 [Compound 2, tert-Butyl 4-[3-(4-chlorophenyl)-1H-pyrrolo[3,2-c]pyridin-1-yl]piperidine-1-carboxylate]	500 to 2500 nM
Clc1ccc(-c2cn(C3CCOC3)c3ccncc23)cc1 (centres unmarked) [Compound 3, 3-(4-Chlorophenyl)-1-(oxolan-3-yl)-1H-pyrrolo[3,2-c]pyridine]	100 to 500 nM
Clc1ccc(-c2cn(C3CCOCC3)c3ccncc23)cc1 [Compound 4, 3-(4-Chlorophenyl)-1-(oxan-4-yl)-1H-pyrrolo[3,2-c]pyridine]	100 to 500 nM
Clc1ccc(-c2cn(C3CCNCC3)c3ccncc23)cc1 [Compound 5, Bis(2,2,2-trifluoroacetic acid); 4-[3-(4-chlorophenyl)-1H-pyrrolo[3,2-c]pyridin-1-yl]piperidine]	100 to 500 nM
Clc1ccc(-c2cn(C3CCNCC3)c3ccncc23)cc1Cl [Compound 6, 4-[3-(3,4-Dichlorophenyl)-1H-pyrrolo[3,2-c]pyridin-1-yl]piperidine hydrochloride]	500 to 2500 nM
O=C(CO)N1CCC(n2cc(-c3ccc(Cl)c(Cl)c3)c3cnccc32)CC1 [Compound 7, 1-{4-[3-(3,4-Dichlorophenyl)-1H-pyrrolo[3,2-c]pyridin-1-yl]piperidin-1-yl}-2-hydroxyethan-1-one]	500 to 2500 nM
Clc1ccc(-n2cc(C3=CCNCC3)c3ccncc32)cc1 [Compound 8, 4-[1-(4-Chlorophenyl)-1H-pyrrolo[2,3-c]pyridin-3-yl]-hydrochloride]	100 to 500 nM
CC(C)(C)OC(=O)N1CCC(c2cn(-c3ccc(Cl)cc3)c3cnccc23)CC1 [Compound 9, tert-Butyl 4-[1-(4-chlorophenyl)-1H-pyrrolo[2,3-c]pyridin-3-yl]piperidine-1-carboxylate]	500 to 2500 nM
Clc1ccc(-n2cc(C3CCNCC3)c3ccncc32)cc1 [Compound 10, 1-(4-Chlorophenyl)-3-piperidin-4-yl-1H-pyrrolo[2,3-c]pyridine trifluoroacetate]	100 to 500 nM
CC(C)(C)OC(=O)NC1CCC(c2cn(-c3ccc(Cl)cc3)c3cnccc23)CC1 (centres unmarked) [Compound 11, tert-Butyl N-{4-[1-(4-chlorophenyl)-1H-pyrrolo[2,3-c]pyridin-3-yl]cyclohexyl}-carbamate]	100 to 500 nM
CN(C)CC(=O)N1CCC(c2cn(-c3ccc(Cl)cc3)c3cnccc23)CC1 [Compound 14, 1-{4-[1-(4-Chlorophenyl)-1H-pyrrolo[2,3-c]pyridin-3-yl]piperidin-1-yl}-2-(dimethyl-amino)ethan-1-one]	100 to 500 nM
O=C(CO)N1CCC(c2cn(-c3ccc(Cl)cc3)c3cnccc23)CC1 [Compound 15, 1-{4-[1-(4-Chlorophenyl)-1H-pyrrolo[2,3-c]pyridine-3-yl]piperidin-1-yl}-2-hydroxyethan-1-one]	< 100 nM
NCC(=O)N1CCC(c2cn(-c3ccc(Cl)cc3)c3cnccc23)CC1 [Compound 16, 2-Amino-{4-[1-(4-chlorophenyl)-1H-pyrrolo[2,3-c]pyridin-3-yl]piperidin-1-yl}-ethan-1-one hydrochloride]	< 100 nM
NCCC(=O)N1CCC(c2cn(-c3ccc(Cl)cc3)c3cnccc23)CC1 [Compound 17, 3-Amino-1-{4-[1-(4-chlorophenyl)-1H-pyrrolo[2,3-c]pyridin-3-yl]piperidin-1-yl}propan-1-one hydrochloride]	< 100 nM
OCCN1CCC(c2cn(-c3ccc(Cl)cc3)c3cnccc23)CC1 [Compound 18, 2-{4-[1-(4-Chlorophenyl)-1H-pyrrolo[2,3-c]pyridin-3-yl]piperidin-1-yl}ethan-1-ol]	100 to 500 nM

Further lines, results first:

IC50	SMILES
100 to 500 nM	Clc1ccc(-n2cc(C3CCN(Cc4cc[nH]n4)CC3)c3ccncc32)cc1 [Compound 19, 4-[1-(4-Chlorophenyl)-1H-pyrrolo[2,3-c]pyridin-3-yl]-1-(1H-pyrazol-3-ylmethyl)-piperidine]
100 to 500 nM	Cn1cc(CN2CCC(c3cn(-c4ccc(Cl)cc4)c4cnccc34)CC2)cn1 [Compound 20, 4-[1-(4-Chlorophenyl)-1H-pyrrolo[2,3-c]pyridin-3-yl]-1-[(1-methyl-1H-pyrazol-4-yl)-methyl]piperidine]
100 to 500 nM	N#CCCN1CCC(c2cn(-c3ccc(Cl)cc3)c3cnccc23)CC1 [Compound 21, 3-{4-[1-(4-Chlorophenyl)-1H-pyrrolo[2,3-c]pyridine-3-yl]piperidin-1-yl}propanenitrile hydrochloride]
100 to 500 nM	N#CCCCN1CCC(c2cn(-c3ccc(Cl)cc3)c3cnccc23)CC1 [Compound 22, 4-{4-[1-(4-Chlorophenyl)-1H-pyrrolo[2,3-c]pyridin-3-yl]piperidin-1-yl}butanenitrile hydrochloride]
500 to 2500 nM	OCc1cn(-c2ccc(Cl)cc2)c2cnccc12 [Compound 23, [1-(4-Chlorophenyl)-1H-pyrrolo[2,3-c]pyridin-3-yl]methanol]
500 to 2500 nM	CN1CCN(Cc2cn(-c3ccc(Cl)cc3)c3cnccc23)CC1 [Compound 24, 1-{[1-(4-Chlorophenyl)-1H-pyrrolo[2,3-c]pyridin-3-yl]methyl}-4-methylpiperazine]
500 to 2500 nM	CC(C)(C)OC(=O)N1CCN(Cc2cn(-c3ccc(Cl)cc3)c3cnccc23)CC1 [Compound 25]
500 to 2500 nM	Clc1ccc(-n2cc(CN3CCNCC3)c3ccncc32)cc1 [Compound 26, 1-{[1-(4-Chlorophenyl)-1H-pyrrolo[2,3-c]pyridin-3-yl]methyl}piperazine]
500 to 2500 nM	OCCC1CCN(Cc2cn(-c3ccc(Cl)cc3)c3cnccc23)CC1 [Compound 27, 2-(1-{[1-(4-Chlorophenyl)-1H-pyrrolo[2,3-c]pyridin-3-yl]methyl}piperidin-4-yl)ethan-1-ol]
100 to 500 nM	OCC1CCN(Cc2cn(-c3ccc(Cl)cc3)c3cnccc23)CC1 [Compound 28, (1-{[1-(4-Chlorophenyl)-1H-pyrrolo[2,3-c]pyridin-3-yl]methyl}piperidin-4-yl)methanol]
500 to 2500 nM	Clc1ccc(-n2cc(CN3CCOCC3)c3ccncc32)cc1 [Compound 29, 4-{[1-(4-Chlorophenyl)-1H-pyrrolo[2,3-c]pyridin-3-yl]methyl}morpholine]

Source: patent US9227967B2, “Inhibitor compounds of semicarbazide-sensitive amine oxidases” (Proximagen Limited, priority 2010, dated 2016)
